Tests used:
ryegrass, Italian = test: Test C postemergence; format: in vivo, Lolium multiflorum
Excerpt: (§1) Seeds of plant species selected from blackgrass (Alopecurus myosuroides), ryegrass, Italian (Italian ryegrass, Lolium multiflorum), wheat (winter wheat, Triticum aestivum), galium (catchweed bedstraw, Galium aparine), corn (Zea mays), crabgrass, large (large crabgrass, Digitaria sanguinalis), foxtail, giant (giant foxtail, Setaria faberii), johnsongrass (Sorghum halepense), lambsquarters (Chenopodium album), morningglory (Ipomoea coccinea), nutsedge, yellow (yellow nutsedge, Cyperus esculentus), pigweed (redroot pigweed, Amaranthus retroflexus), ragweed (common ragweed, Ambrosia elation), soybean (Glycine max), barnyardgrass (Echinochloa crus-galli), oilseed rape (Brassica napus), waterhemp (common waterhemp, Amaranthus rudis), oat, wild (wild oat, Avena fatua), kochia (Kochia scoparia), Surinam grass (Brachiaria decumbens), foxtail, green (green foxtail, Setaria viridis), goosegrass (Eleusine indica), bromegrass, downy (downy bromegrass, Bromus tectorum), nightshade (eastern black nightshade, Solanum ptycanthum), cocklebur (common cocklebur, Xanthium strumarium), cupgrass, woolly (woolly cupgrass, Eriochloa villosa), bermudagrass (Cynodon dactylon), sunflower, (common oilseed sunflower, Helianthus annuus), Russian thistle (Salsola kali), and velvetleaf (Abutilon theophrasti) were planted into a blend of loam soil and sand and treated preemergence with test chemicals formulated in a non-phytotoxic solvent mixture which included a surfactant.
(§2) At the same time, plants selected from these crop and weed species and also chickweed (common chickweed, Stellaria media), canarygrass (littleseed canarygrass, Phalaris minor), and deadnettle (henbit deadnettle, Lamium amplexicaule), were planted in pots containing Redi-Earth® planting medium (Scotts Company, 14111 Scottslawn Road, Marysville, Ohio 43041) comprising spaghnum peat moss, vermiculite, wetting agent and starter nutrients and treated with postemergence applications of test chemicals formulated in the same manner. Plants ranged in height from 2 to 18 cm (1- to 4-leaf stage) for postemergence treatments. Treated plants and controls were maintained in a greenhouse for 13 to 15 days, after which time all species were compared to controls and visually evaluated. Plant response ratings, summarized in Table C, are based on a scale of 0 to 100 where 0 is no effect and 100 is complete control. A dash (-) response means no test result.

galium = test: Test C postemergence; format: in vivo, Galium aparine
Excerpt: as §1, §2

foxtail, giant = test: Test C postemergence; format: in vivo, Setaria faberii
Excerpt: as §1, §2

lambsquarters [1] = test: Test C postemergence; format: in vivo, Chenopodium album; settings: postemergence
Excerpt: as §1, §2

morningglory = test: Test C postemergence; format: in vivo, Ipomoea coccinea
Excerpt: as §1, §2

nutsedge, yellow = test: Test C postemergence; format: in vivo, Cyperus esculentus
Excerpt: as §1, §2

pigweed = test: Test C postemergence; format: in vivo, Amaranthus retroflexus
Excerpt: as §1, §2

ragweed = test: Test C postemergence; format: in vivo, Ambrosia elation
Excerpt: as §1, §2

soybean = test: Test C postemergence; format: in vivo, Glycine max
Excerpt: as §1, §2

barnyardgrass = test: Test C postemergence; format: in vivo, Echinochloa crus-galli
Excerpt: as §1, §2

waterhemp = test: Test C postemergence; format: in vivo, Amaranthus rudis; settings: for Waterhemp plant response rating: scale 0 to 100
Excerpt: as §1, §2

oat, wild = test: Test C postemergence; format: in vivo, Avena fatua
Excerpt: as §1, §2

kochia = test: Test C postemergence; format: in vivo, Kochia scoparia
Excerpt: as §1, §2

velvetleaf = test: Test C postemergence; format: in vivo, Abutilon theophrasti; settings: for Velvetleaf plant response rating: scale 0 to 100
Excerpt: as §1, §2

chickweed = test: Test C postemergence; format: in vivo, Stellaria media
Excerpt: as §1, §2

lambsquarters [2] = test: Test C preemergence; format: in vivo, Chenopodium album
Excerpt: as §1, §2

[3] = Postemergence, 31 g ai/ha, visually evaluated after 13 to 15 days
[4] = postemergence, 62 g ai/ha, scale 0 to 100
[5] = postemergence, 250 g ai/ha, scale 0 to 100 (0 no effect, 100 complete control)
[6] = postemergence, 125 g ai/ha, scale 0 to 100, 0 no effect, 100 complete control
[7] = preemergence, 62 g ai/ha, scale 0 to 100 (0 no effect, 100 complete control), 13 to 15 days
[8] = preemergence, 125 g ai/ha, 13 to 15 days, scale 0 to 100, 0 = no effect, 100 = complete control
[9] = preemergence, 250 g ai/ha, scale 0 to 100, 0 is no effect, 100 is complete control

## CCCc1cc(C(=O)NCC(F)(F)F)nn1Cc1cc(C(F)(F)F)nn1C [Compound 138]
ryegrass, Italian; [3]
  Plant response rating (scale of 0 to 100 where 0 is no effect and 100 is complete control), Ryegrass, Italian: 5
ryegrass, Italian; [4]
  Ryegrass, Italian plant response rating: 15
ryegrass, Italian; [5]
  Plant response rating, Ryegrass, Italian: 10
ryegrass, Italian; [6]
  Plant response rating, Ryegrass, Italian: 5
galium; [3]
  Plant response rating (scale of 0 to 100 where 0 is no effect and 100 is complete control), Galium: 65
galium; [4]
  Galium plant response rating: 70
galium; [5]
  Plant response rating, Galium: 80
galium; [6]
  Plant response rating, Galium: 75
foxtail, giant; [3]
  Plant response rating (scale of 0 to 100 where 0 is no effect and 100 is complete control), Foxtail, Giant: 5
foxtail, giant; [4]
  Foxtail, Giant plant response rating: 5
foxtail, giant; [5]
  Plant response rating, Foxtail, Giant: 50
foxtail, giant; [6]
  Plant response rating, Foxtail, Giant: 10
Lambsquarters [1]; 62 g ai/ha, scale 0 to 100
  Lambsquarters plant response rating: 40
Lambsquarters [1]; 250 g ai/ha, scale 0 to 100 (0 no effect, 100 complete control)
  Plant response rating, Lambsquarters: 95
Lambsquarters [1]; 125 g ai/ha, scale 0 to 100, 0 no effect, 100 complete control
  Plant response rating, Lambsquarters: 75
morningglory; [3]
  Plant response rating (scale of 0 to 100 where 0 is no effect and 100 is complete control), Morningglory: 60
morningglory; [4]
  Morningglory plant response rating: 85
morningglory; [5]
  Plant response rating, Morningglory: 95
morningglory; [6]
  Plant response rating, Morningglory: 85
nutsedge, yellow; [3]
  Plant response rating (scale of 0 to 100 where 0 is no effect and 100 is complete control), Nutsedge, Yellow: 0
nutsedge, yellow; [4]
  Nutsedge, Yellow plant response rating: 0
nutsedge, yellow; [5]
  Plant response rating, Nutsedge, Yellow: 5
nutsedge, yellow; [6]
  Plant response rating, Nutsedge, Yellow: 5
pigweed; [3]
  Plant response rating (scale of 0 to 100 where 0 is no effect and 100 is complete control), Pigweed: 75
pigweed; [4]
  Pigweed plant response rating: 85
pigweed; [5]
  Plant response rating, Pigweed: 85
pigweed; [6]
  Plant response rating, Pigweed: 80
ragweed; [3]
  Plant response rating (scale of 0 to 100 where 0 is no effect and 100 is complete control), Ragweed: 10
ragweed; [4]
  Ragweed plant response rating: 30
ragweed; [5]
  Plant response rating, Ragweed: 60
ragweed; [6]
  Plant response rating, Ragweed: 50
soybean; [3]
  Plant response rating (scale of 0 to 100 where 0 is no effect and 100 is complete control), Soybean: 65
soybean; [4]
  Soybean plant response rating: 75
soybean; [5]
  Plant response rating, Soybean: 65
soybean; [6]
  Soybean plant response rating: 90
barnyardgrass; [3]
  Plant response rating (scale of 0 to 100 where 0 is no effect and 100 is complete control), Barnyardgrass: 10
barnyardgrass; [4]
  Barnyardgrass plant response rating: 25
barnyardgrass; [5]
  Plant response rating, Barnyardgrass: 65
barnyardgrass; [6]
  Plant response rating, Barnyardgrass: 20
waterhemp; [3]
  Plant response rating (scale of 0 to 100 where 0 is no effect and 100 is complete control), Waterhemp: 75
waterhemp; postemergence, 62 g ai/ha
  Waterhemp plant response rating: 70
waterhemp; [5]
  Plant response rating, Waterhemp: 95
waterhemp; postemergence
  Waterhemp plant response rating: 100
oat, wild; [3]
  Plant response rating (scale of 0 to 100 where 0 is no effect and 100 is complete control), Oat, Wild: 10
oat, wild; [4]
  Oat, Wild plant response rating: 20
oat, wild; [5]
  Plant response rating, Oat, Wild: 30
oat, wild; [6]
  Plant response rating, Oat, Wild: 10
kochia; [3]
  Plant response rating (scale of 0 to 100 where 0 is no effect and 100 is complete control), Kochia: 100
kochia; [4]
  Kochia plant response rating: 90
kochia; [5]
  Plant response rating, Kochia: 90
kochia; [6]
  Plant response rating, Kochia: 90
velvetleaf; [3]
  Plant response rating (scale of 0 to 100 where 0 is no effect and 100 is complete control), Velvetleaf: 30
velvetleaf; postemergence, 62 g ai/ha
  Velvetleaf plant response rating: 40
velvetleaf; [5]
  Plant response rating, Velvetleaf: 50
velvetleaf; postemergence
  Velvetleaf plant response rating: 25
chickweed; [3]
  Plant response rating (scale of 0 to 100 where 0 is no effect and 100 is complete control), Chickweed: 70
chickweed; [4]
  Chickweed plant response rating: 80
chickweed; [5]
  Plant response rating, Chickweed: 90
chickweed; [6]
  Plant response rating, Chickweed: 80

## CCNC(=O)c1cc(CCCl)n(Cc2ccnc(C(F)(F)F)c2)n1 [Compound 179]
Lambsquarters [2]; preemergence, 31 g ai/ha, visual rating, scale 0 to 100 (0 no effect, 100 complete control), 13 to 15 days
  Lambsquarters plant response rating: 90
Lambsquarters [2]; [7]
  Lambsquarters plant response rating: 100
Lambsquarters [2]; [8]
  Plant response rating, Lambsquarters: 100
Lambsquarters [2]; [9]
  Lambsquarters plant response rating: 100

## CCc1cc(C(=O)NC2CC2)nn1Cc1cc(C(F)(F)C(F)(F)F)nn1C [Compound 226]
Lambsquarters [2]; Preemergence, rate head not shown (block before 16 g ai/ha), scale 0 to 100
  Plant response rating, Lambsquarters: 100
Lambsquarters [2]; [7]
  Lambsquarters plant response rating: 100
Lambsquarters [2]; [8]
  Plant response rating, Lambsquarters: 100
Lambsquarters [2]; [9]
  Lambsquarters plant response rating: 100

Source: patent US20150105252A1, “SUBSTITUTED PYRAZOLES AS HERBICIDES” (E I DU PONT DE NEMOURS AND COMPANY, priority 2013, published 2015)
